# Reference: PMC6934184, “Selective DNA-PKcs inhibition extends the therapeutic index of localized radiotherapy and chemotherapy” (The Journal of Clinical Investigation, 2019)
# Molecular target: T1, DDR1 (Homo sapiens, UniProt Q08345)
# T1 construct: purchased Thermo Fisher Scientific (Life Technologies) SelectScreen
# Test: SelectScreen LanthaScreen
# Format: binding
# Details: read-out: % displacement
# Outline: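 Percent values come from Thermo SelectScreen profiling of NU5455, combining activity and binding assays. CSF1R was run in Z'LYTE format at Km app ATP, and CAMK1 in Adapta format with ATP listed at 10.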
# T1 sequence (Q08345 19-913): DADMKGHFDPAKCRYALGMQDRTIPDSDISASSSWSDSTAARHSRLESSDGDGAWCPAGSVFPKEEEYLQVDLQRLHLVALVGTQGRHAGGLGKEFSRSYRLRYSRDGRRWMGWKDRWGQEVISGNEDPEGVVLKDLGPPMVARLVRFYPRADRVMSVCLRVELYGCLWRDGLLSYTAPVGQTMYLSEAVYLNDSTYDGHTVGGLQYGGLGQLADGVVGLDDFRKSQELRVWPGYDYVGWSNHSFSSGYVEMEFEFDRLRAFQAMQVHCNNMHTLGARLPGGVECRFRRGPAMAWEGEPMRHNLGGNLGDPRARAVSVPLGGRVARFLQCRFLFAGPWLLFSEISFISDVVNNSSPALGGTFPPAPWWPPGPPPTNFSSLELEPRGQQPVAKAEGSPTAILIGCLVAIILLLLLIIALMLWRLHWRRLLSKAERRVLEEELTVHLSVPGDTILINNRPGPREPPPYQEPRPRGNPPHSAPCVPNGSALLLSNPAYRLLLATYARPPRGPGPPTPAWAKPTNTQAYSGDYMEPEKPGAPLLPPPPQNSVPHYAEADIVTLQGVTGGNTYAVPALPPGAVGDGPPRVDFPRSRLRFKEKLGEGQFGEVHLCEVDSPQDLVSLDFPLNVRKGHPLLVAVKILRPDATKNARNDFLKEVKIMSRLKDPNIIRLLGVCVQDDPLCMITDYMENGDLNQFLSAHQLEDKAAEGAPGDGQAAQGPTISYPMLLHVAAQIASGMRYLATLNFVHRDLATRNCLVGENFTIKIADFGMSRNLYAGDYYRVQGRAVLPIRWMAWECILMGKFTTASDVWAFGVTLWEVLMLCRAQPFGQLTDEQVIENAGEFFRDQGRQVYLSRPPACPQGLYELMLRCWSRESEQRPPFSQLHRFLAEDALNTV
structure (smiles),measurement,value
CN(C(=O)CN1CCOCC1)c1ccc2sc3c(-c4cccc5c(=O)cc(N6CC7CCC(C6)O7)oc45)cccc3c2c1 [NU5455],inhibition at 1 µM,-1.8%
